Earlier results in patent US20190298786A1, “EXTRACTS OF SAUDI ARABIAN HERBAL PLANTS, ANTI-CANCER METHOD USING SUCH EXTRACTS, AND CYTOLOGICAL PROFILING USING AUTOMATED HIGH-CONTENT IMAGING TECHNIQUE” (King Abdullah University of Science and Technology, priority 2016, published 2019).
Values after ≈ are worked out from the molar mass of the structure shown.

Key:
[1] = test system: human cervical cancer (HOG-1) cell; conditions: HOG-1 cells, different concentrations

CCCCCCCCCCCCCCCCCC(=O)O [stearic acid, Stearic acid]
effect on cell growth and DNA synthesis [1]: inhibited

CC(C)(C)c1ccc(O)c(C(C)(C)C)c1 [2,4-ditert-butylphenol]
IC50 (cytotoxic effects) (KB cells): 0.81 µg/mL (≈ 3.93 µM) | IC50 (cytotoxic effects) (MCF7 cells): 5.75 µg/mL (≈ 27.9 µM) | IC50 (cytotoxic effects) (CasKi cells): 4.5 µg/mL (≈ 21.8 µM)
